Laboratory results reported in the NIST ThermoML archive (doi:10.1016/j.jct.2007.10.010).

Experiments:
[1] = refractive index (Na D-line) (dimensionless); settings: 298.15 K; 101.33 kPa; Liquid; Standard Abbe refractometry
[2] = 101 kPa, Liquid
[3] = xn = mol fraction of the nth substance listed; settings: 101 kPa, Liquid

Cc1cc(C)cc(C)c1 [1,3,5-trimethylbenzene]
Settings	refractive index
[1]	1.4967

[2]
Settings	mass density [kg/m3]
298.15 K	861.13
308.15 K	852.89
318.15 K	844.78
328.15 K	836.65

c1ccccc1 [benzene] + CCCCCCCC
[3], x2 = 0
Settings	mass density [kg/m3]
298.15 K	873.62
308.15 K	863.01
318.15 K	852.16
328.15 K	841.49

CCCCCCCC [octane] + Cc1ccccc1
mass density [kg/m3], [3]
Settings	298.15 K	308.15 K	318.15 K	328.15 K
x1 = 0.0654	845.89	836.6	–	–
x1 = 0.0675	–	–	826.95	817.77
x1 = 0.1229	–	–	814.22	805.12
x1 = 0.1283	831.23	822.06	–	–
x1 = 0.1979	816.17	807.1	–	–
x1 = 0.2052	–	–	796.69	787.73
x1 = 0.2524	805.13	796.14	–	–
x1 = 0.2613	–	–	785.56	776.68
x1 = 0.312	793.74	784.82	–	–
x1 = 0.3142	–	–	775.67	766.87
x1 = 0.3931	779.27	770.46	–	–
x1 = 0.398	–	–	761	752.32
x1 = 0.4544	769.05	760.31	–	–
x1 = 0.4553	–	–	751.61	743.01
x1 = 0.5388	–	–	738.82	730.32
x1 = 0.5409	755.59	746.93	–	–
x1 = 0.6029	746.56	737.98	–	–
x1 = 0.6078	–	–	728.94	720.55
x1 = 0.6679	–	–	720.81	712.48
x1 = 0.6717	737.09	728.58	–	–
x1 = 0.7202	730.75	722.3	–	–
x1 = 0.7262	–	–	713.32	705.06
x1 = 0.7985	–	–	704.51	696.33
x1 = 0.8064	720.08	711.7	–	–
x1 = 0.863	–	–	697.07	688.97
x1 = 0.8727	712.36	704.05	–	–
x1 = 0.9143	–	–	691.43	683.39
x1 = 0.9312	705.88	697.62	–	–
x1 = 1	698.61	690.44	682.49	674.55
